OC[C@@H](O)C(O)[C@@H](O)CO (some centres undefined)
solubility (mole fraction)
Details | 293.15 K | 298.15 K | 303.15 K | 308.15 K | 313.15 K | 318.15 K | 323.15 K
in acetone | 0.000202 | 0.00024 | 0.000302 | 0.000399 | 0.000542 | 0.000739 | 0.001
in ethanol | 0.00172 | 0.0024 | 0.00309 | 0.00396 | 0.00521 | 0.00703 | 0.0096

Source: BigSolDB 2.1
